Experimental data published in paper PMC7932537, “Quantitative profiling of protease specificity” (PLoS Computational Biology, 2021).

What was measured:
MMP-2 [1] = target: T1, MMP-2 (Homo sapiens, UniProt P08253); test: K(obs) of individual phage substrates (set of 1369); format: biochemical; conditions: MMP2
T1 sequence (P08253 110-660): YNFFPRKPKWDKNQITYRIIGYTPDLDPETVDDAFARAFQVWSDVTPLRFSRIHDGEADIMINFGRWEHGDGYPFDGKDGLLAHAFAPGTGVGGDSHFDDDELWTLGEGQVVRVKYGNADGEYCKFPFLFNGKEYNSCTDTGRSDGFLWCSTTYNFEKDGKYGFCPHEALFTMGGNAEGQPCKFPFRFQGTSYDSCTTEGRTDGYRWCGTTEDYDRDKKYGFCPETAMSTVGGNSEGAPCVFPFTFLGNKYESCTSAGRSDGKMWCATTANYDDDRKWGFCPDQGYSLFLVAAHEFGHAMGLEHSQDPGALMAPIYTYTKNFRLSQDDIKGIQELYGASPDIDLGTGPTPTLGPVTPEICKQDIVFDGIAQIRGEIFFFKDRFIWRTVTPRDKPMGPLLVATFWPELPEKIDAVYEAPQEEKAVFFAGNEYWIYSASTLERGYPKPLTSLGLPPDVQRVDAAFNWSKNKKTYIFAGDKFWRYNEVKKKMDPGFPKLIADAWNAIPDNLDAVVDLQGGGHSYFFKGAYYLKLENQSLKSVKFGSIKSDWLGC

MMP-9 = MMP-9 (Homo sapiens, UniProt P14780); test: as above; format: biochemical; conditions: MMP9
MMP-9, sequence (P14780 94-707): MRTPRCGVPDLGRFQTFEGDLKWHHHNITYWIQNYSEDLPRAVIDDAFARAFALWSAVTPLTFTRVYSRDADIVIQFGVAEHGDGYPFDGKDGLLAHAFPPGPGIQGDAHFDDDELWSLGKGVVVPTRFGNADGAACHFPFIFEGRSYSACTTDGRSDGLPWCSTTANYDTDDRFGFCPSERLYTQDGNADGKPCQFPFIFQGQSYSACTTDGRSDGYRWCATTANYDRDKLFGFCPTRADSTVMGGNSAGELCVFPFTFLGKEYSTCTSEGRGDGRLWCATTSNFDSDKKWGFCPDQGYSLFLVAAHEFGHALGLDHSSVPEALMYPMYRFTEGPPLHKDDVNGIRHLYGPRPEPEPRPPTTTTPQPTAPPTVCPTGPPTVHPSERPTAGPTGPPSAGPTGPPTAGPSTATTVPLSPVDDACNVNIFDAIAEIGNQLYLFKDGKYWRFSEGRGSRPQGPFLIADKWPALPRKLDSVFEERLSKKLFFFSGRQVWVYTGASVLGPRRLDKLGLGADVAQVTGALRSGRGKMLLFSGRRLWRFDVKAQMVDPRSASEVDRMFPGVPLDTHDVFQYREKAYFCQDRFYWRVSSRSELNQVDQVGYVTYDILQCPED

MMP-2 [2] = test: Substrate phage display with NGS: relative probability (RP) of P3-P1' tetramer clusters; format: biochemical, human; conditions: MMP2;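 note: ratio of tetramer probability after protease selection to that in naive phage library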
[3] = individual phage substrate of the set of 1369 peptides, cleavage position marked by '-'
[4] = individual phage substrate of the set of 1369 peptides, dash in the sequence marks the cleavage position
[5] = RP of the P3-P1' tetramer contained in the substrate
[6] = individual phage substrates, set of 1369 peptides, cleavage position marked by hyphen in sequence
[7] = individual phage substrates, set of 1369 peptides, hyphen in sequence marks cleavage position
[8] = RP of the P3-P1' tetramer contained in the substrate (substrate phage display with NGS)

| Substance | Kobs (MMP-2 [1]; [3]) [M⁻¹ s⁻¹] | Kobs (MMP-9; [4]) [M⁻¹ s⁻¹] | relative probability (RP) (MMP-2 [2]; [5]) | Kobs (MMP-2 [1]; [6]) [M⁻¹ s⁻¹] | Kobs (MMP-9; [7]) [M⁻¹ s⁻¹] | relative probability (RP) (MMP-2 [2]; [8]) |
| --- | --- | --- | --- | --- | --- | --- |
| RTGLY-LTASG | 1283.43 | 0 | 0.07615 | – | – | – |
| RTMLH-MTASG | – | – | – | 619.843 | 261.974 | 4.713 |
| RTPIG-ITASG | 9740.44 | 12792.1 | 31.281 | – | – | – |
| RTPMA-MTASG | 2837.92 | 3637.04 | 30.2676 | – | – | – |
| RTPVG-LTASG | – | – | – | 12792.1 | 8321.48 | 35.2016 |
| RVPYG-LTASG | 6131.32 | 7015.91 | 32.9966 | – | – | – |
| RVTWA-LTASG | – | – | – | 0 | 1196.62 | 0.4366 |
| RYAQP-LTASG | – | – | – | 4205.91 | 2409.72 | 14.4283 |
| SEPFG-LTASG | 12792.1 | 12792.1 | 31.7131 | – | – | – |
| SEWQG-LTASG | 1711.63 | 690.17 | 12.939 | – | – | – |
| SFPNP-LTASG | 5667.28 | 2545.25 | 23.6266 | – | – | – |
| SGAFN-LYSTA | 12792.1 | 12792.1 | 16.2959 | – | – | – |
| SGAHG-ILSTA | 2996.69 | 3536.02 | 8.881 | – | – | – |
| SGAHG-LLLTA | 517.582 | 1071.29 | 23.6336 | – | – | – |
| SGAHG-LLTTA | 1112.44 | 142.481 | 23.6336 | – | – | – |
| SGALH-LKATA | – | – | – | 4205.91 | 6688.74 | 14.6488 |
| SGAMG-LFRTA | 142.481 | 619.843 | 23.7576 | – | – | – |
| SGAQM-LRGTA | – | – | – | 4082.43 | 5461.43 | 8.608 |
| SGARA-MKWTA | 1373.05 | 2837.92 | 25.2992 | – | – | – |
| SGARN-LLWTA | 1660.66 | 4613.14 | 24.6947 | – | – | – |
| SGARQ-LVLTA | – | – | – | 0 | 0 | 3.214 |
| SGARS-LKGTA | – | – | – | 9740.44 | 12792.1 | 17.186 |
| SGARS-MRLTA | – | – | – | 0 | 762.325 | 12.2991 |

| Substance | Kobs (MMP-2 [1]; [3]) [M⁻¹ s⁻¹] | Kobs (MMP-9; [4]) [M⁻¹ s⁻¹] | relative probability (RP) (MMP-2 [2]; [5]) | Kobs (MMP-2 [1]; [6]) [M⁻¹ s⁻¹] | Kobs (MMP-9; [7]) [M⁻¹ s⁻¹] | relative probability (RP) (MMP-2 [2]; [8]) |
| --- | --- | --- | --- | --- | --- | --- |
| SGASH-MTLTA | – | – | – | 0 | 0 | 12.3873 |
| SGFAH-LTSTA | – | – | – | 4763.33 | 171.876 | 19.6504 |
| SGFLH-WRSTA | – | – | – | 0 | 0 | 0.05793 |
| SGFRN-LRITA | – | – | – | 0 | 201.585 | 9.821 |
| SGGSG-LRIGL | 12792.1 | 201.585 | 1.9698 | – | – | – |
| SGGSG-LRILQ | 0 | 0 | 1.9698 | – | – | – |
| SGGSG-LRVKR | – | – | – | 551.253 | 231.616 | 1.9698 |
| SGGSG-LRVLK | 654.784 | 355.093 | 1.9698 | – | – | – |
| SGGSG-LWATP | 1870.4 | 1071.29 | 1.9698 | – | – | – |
| SGHQN-LMATA | – | – | – | 7386.83 | 1561.44 | 17.7487 |
| SGHRS-LRSTA | 1981.53 | 3536.02 | 7.851 | – | – | – |
| SGISF-MSVTA | – | – | – | 836.403 | 0 | 23.3965 |
| SGISY-MRITA | – | – | – | 836.403 | 0 | 22.3091 |
| SGLGT-LSKTA | – | – | – | 836.403 | 0 | 24.6198 |
| SGLRH-LSNTA | – | – | – | 386.839 | 762.325 | 22.7972 |
| SGLWY-LSATA | – | – | – | 1196.62 | 484.315 | 0.6796 |
| SGMAA-LKRTA | 3741.87 | 0 | 32.6562 | – | – | – |
| SGMGH-LLHTA | 654.784 | 0 | 26.7019 | – | – | – |
| SGPAA-LLGTA | 8941.32 | 12792.1 | 35.8015 | – | – | – |
| SGPAR-LISTA | – | – | – | 12792.1 | 12792.1 | 34.9166 |
| SGPAW-MKGTA | – | – | – | 9740.44 | 7386.83 | 34.3571 |
| SGPAY-WRTTA | – | – | – | 12792.1 | 1610.61 | 27.2209 |
| SGPFF-LRKTA | – | – | – | 1239.69 | 5090.5 | 12.8224 |

| Substance | Kobs (MMP-2 [1]; [3]) [M⁻¹ s⁻¹] | Kobs (MMP-9; [4]) [M⁻¹ s⁻¹] | relative probability (RP) (MMP-2 [2]; [5]) | Kobs (MMP-2 [1]; [6]) [M⁻¹ s⁻¹] | Kobs (MMP-9; [7]) [M⁻¹ s⁻¹] | relative probability (RP) (MMP-2 [2]; [8]) |
| --- | --- | --- | --- | --- | --- | --- |
| SGPFH-LSRTA | – | – | – | 84.609 | 2280.5 | 23.4724 |
| SGPFR-LNWTA | – | – | – | 0 | 1373.05 | 16.3818 |
| SGPFY-LRNTA | – | – | – | 2038.8 | 7815.03 | 17.7778 |
| SGPHG-FFQTA | 171.876 | 551.253 | 21.975 | – | – | – |
| SGPHH-LTLTA | 1327.88 | 1925.41 | 27.4742 | – | – | – |
| SGPKS-LVRTA | 12792.1 | 12792.1 | 32.0343 | – | – | – |
| SGPKW-IIQTA | 2687.73 | 12792.1 | 22.5059 | – | – | – |
| SGPLG-IKSTA | – | – | – | 12792.1 | 12792.1 | 33.936 |
| SGPLG-IRYTA | 9740.44 | 7815.03 | 33.936 | – | – | – |
| SGPLG-ITLTA | – | – | – | 12792.1 | 12792.1 | 33.936 |
| SGPLG-LSGTA | 12792.1 | 12792.1 | 35.3536 | – | – | – |
| SGPLG-YTVTA | 12792.1 | 12792.1 | 33.1744 | – | – | – |
| SGPMA-LSRTA | 8321.48 | 12792.1 | 34.1737 | – | – | – |
| SGPMF-LWTTA | 1283.43 | 10866.7 | 18.5721 | – | – | – |
| SGPMR-LVTTA | – | – | – | 1870.4 | 4205.91 | 20.4124 |
| SGPNY-IRATA | – | – | – | 7386.83 | 12792.1 | 6.689 |
| SGPQS-WRTTA | – | – | – | 7815.03 | 3165.09 | 25.7009 |
| SGPQW-ITGTA | 7815.03 | 12792.1 | 28.1021 | – | – | – |
| SGPRA-LKGTA | 12792.1 | 12792.1 | 35.2345 | – | – | – |
| SGPRF-IRLTA | 1154.21 | 2097.28 | 22.3274 | – | – | – |
| SGPRG-QVFTA | 12792.1 | 8941.32 | 29.4864 | – | – | – |
| SGPRM-LVLTA | 4082.43 | 6688.74 | 30.5973 | – | – | – |
| SGPRP-LLATA | 12792.1 | 12792.1 | 34.3303 | – | – | – |
